From patent US9238603B1, “Batch process for the preparation of cis-2,2,4,4-tetramethylcyclobutane-1,3-diol” (EASTMAN CHEMICAL COMPANY, priority 2014, dated 2016) come the findings set out here.

SMILES strings stand for the structures.

The series is described as follows: cis/trans solubility ratio of 2,2,4,4-tetramethylcyclobutane-1,3-diol in a solvent. Format: physicochemical. The method, then:
The definition of cis/trans 2,2,4,4-tetramethylcyclobutane-1,3-diol solubility ratio is also known to one of ordinary skill in the art; in one embodiment, the cis/trans 2,2,4,4-tetramethylcyclobutane-1,3-diol solubility ratio can be defined as the ratio of the cis isomer solubility limit divided by the trans isomer solubility limit at a given temperature for a given solvent or solvents. For example, the cis/trans solubility ratio in water at 80° C. is about 1.0. For MIBC, the cis/trans solubility ratio at 80° C. is about 0.74.

As for `CC1(C)C(O)C(C)(C)C1O` (centres unmarked) [2,2,4,4-tetramethylcyclobutane-1,3-diol], the “cis/trans solubility ratio (cis isomer solubility limit divided by trans isomer solubility limit)” value is, setting by setting: (in MIBC at 80° C.) “about 0.74”; (in water at 80° C.) “about 1.0”.
